# Experimental data as given in US20220072014A1, “PHARMACEUTICAL COMPOSITION WHICH COMPRISES THE COMBINATION OF A SELECTIVE INHIBITOR OF CYCLOOXYGENASE 2 AND A CARBAMATE DERIVED FROM GUAIFENESIN FOR TREATING PAIN, INFLAMMATION AND MUSCULAR CONTRACTION” (priority 2018, published 2022).
# Experiments:
# [1] = tested on: gout arthritis induced by intra-articular uric acid; assay: pain-induced functional impairment in the rat model (PIFIR model), uric acid-induced gout arthritis; assay type: in vivo, male Wistar rats
# Experimental: All experiments were performed during the light phase of the light/darkness cycles.
# rats (lethality) = assay: preclinical toxicity (lethality) study after oral administration; assay type: in vivo, male Wistar rats
# Text: In order to determine the possible antinociceptive and toxic effects of the combination, male Wistar rats [Crl:(WI)fBR] with a weight of 180-200 g were used. All experimental procedures complied with the recommendations of the Committee for Research and Ethical Issues of the International Association for the Study of Pain (Covino et al., 1980) and the Guidelines on Ethical Standards for Investigations of Experimental Pain in Animals (Zimmermann 1983). The number of experimental animals was kept to a minimum (6 animals per experimental point for antinociceptive effects and 10 animals per experimental point for adverse effects:lethality). The rats were kept in a room with alternating light/darkness cycles. For twelve hours before the antinociception experiments rats fasted but had free access to water. All experiments were performed during the light phase of the light/darkness cycles.
# The lethal toxic effects after single administrations were determined in 3 post-treatment timepoints, 24, 48 and 72 hours, in order to determine the corresponding DRC (death).
# [2] = weight gain of experimental animals; assay type: in vivo, rats; settings: celecoxib doses used for the chronic treatment DRC, alone or combined
# [3] = FDA prescribing information; cited from earlier work
# [4] = tested on: arthrosis and rheumatoid arthritis (RA) patients; settings: patients without concomitant ASA; cited from earlier work
# [5] = oral route, cited from earlier work
SMILES,"maximal effect (% FI) ([1]; 2.5 h after oral administration, celecoxib 1,000 mg/Kg alone or with methocarbamol 50 mg/Kg) [%]","effect four hours after being administered (% FI) ([1]; 4 h after oral administration, celecoxib 1,000 mg/Kg alone or with methocarbamol 50 mg/Kg) [%]","ED50 ([1]; Rattus norvegicus, po, read-out: ED50 (antinociceptive dose-response curve)) [mg/kg]","peak antinociceptive effectiveness (AUC of temporal course, global antinociceptive effect) ([1]; oral, acute administration, 4-hour assessment, most efficacious dose celecoxib 1,000 mg/Kg (combination with methocarbamol 50 mg/Kg))",dose at which the lethality DRC begins (rats (lethality); 24 hours) [mg/kg],effect on normal weight gain [2],estimated effective half-life [3] [h],GI bleeding incidence [4],"antinociceptive effect during the assessment period ([1]; methocarbamol 50 mg/Kg alone, oral, 4-hour assessment)",dose causing lethality effects within 24 hours (rats (lethality)),time to peak action ([5]; humans) [h],time to reach active levels [5] [min]
"Cc1ccc(-c2cc(C(F)(F)F)nn2-c2ccc(S(N)(=O)=O)cc2)cc1 [celecoxib, 4-[5-(4-methylphenyl)-3-(trifluoromethyl)-1H-pyrazol-1-yl]benzenesulfonamide]",63.6±9.9,62.5±7.0,51.1,191.9±27.2 area units (au),17800,does not modify the normal weight gain,8 to 12,lower GI bleeding incidence,,,,
"COc1ccccc1OCC(O)COC(N)=O (stereo not drawn) [methocarbamol, 3-(2-methoxyphenoxy)-1,2-propanediol 1-carbamate]",,,,,,,,,did not produce any antinociceptive effect whatsoever,"1,000 mg/Kg",≤ 2,≤ 30
